“And” between values parts separate entries of the source, which are not always exact repeats. Identical values can stand only once. Numbers after ± are expanded uncertainties.
Test: mn = molality of the nth substance listed, in mol/kg
Settings: Fluid (supercritical or subcritical phases), Vibrating tube method, m1 = 0.2392

O=S=O [sulfur dioxide] + O=C=O
Settings	mass density
324.07 K, 2523.7 kPa	45.99 ± 0.08 kg/m3
324.07 K, 2524.8 kPa	46.06 ± 0.08 kg/m3
324.07 K, 5037.9 kPa	106.08 ± 0.2 kg/m3
324.07 K, 5047.5 kPa	106.41 ± 0.2 kg/m3
324.07 K, 7549.5 kPa	197.2 ± 0.56 kg/m3
324.07 K, 7550.3 kPa	197.25 ± 0.56 kg/m3
324.07 K, 10068 kPa	396.72 ± 1.2 kg/m3
324.07 K, 10080 kPa	398.55 ± 1.2 kg/m3
324.07 K, 12568 kPa	620.49 ± 1.4 kg/m3 and 620.47 ± 1.4 kg/m3
324.07 K, 15086 kPa	705.24 ± 1.1 kg/m3
324.07 K, 15087 kPa	705.32 ± 1.1 kg/m3
324.07 K, 17615 kPa	754.18 ± 0.94 kg/m3
324.07 K, 20140 kPa	788.89 ± 0.83 kg/m3 and 788.93 ± 0.83 kg/m3
324.07 K, 22662 kPa	816.06 ± 0.76 kg/m3
324.07 K, 22664 kPa	816.05 ± 0.76 kg/m3
324.07 K, 25179 kPa	838.47 ± 0.72 kg/m3
324.07 K, 25185 kPa	838.49 ± 0.72 kg/m3
324.07 K, 27695 kPa	857.63 ± 0.69 kg/m3
324.07 K, 27705 kPa	857.68 ± 0.69 kg/m3
324.07 K, 30187 kPa	874.31 ± 0.66 kg/m3
324.07 K, 30220 kPa	874.51 ± 0.66 kg/m3
324.07 K, 32689 kPa	889.28 ± 0.66 kg/m3
324.07 K, 32729 kPa	889.51 ± 0.66 kg/m3
324.07 K, 35178 kPa	902.77 ± 0.69 kg/m3
324.07 K, 35212 kPa	902.97 ± 0.69 kg/m3
349.39 K, 2532.7 kPa	41.96 ± 0.08 kg/m3
349.39 K, 2537.9 kPa	42.01 ± 0.08 kg/m3
349.39 K, 5043.8 kPa	91.74 ± 0.15 kg/m3
349.39 K, 5046.4 kPa	91.91 ± 0.15 kg/m3
349.39 K, 7518.6 kPa	153.18 ± 1.6 kg/m3
349.39 K, 7555.2 kPa	154.4 ± 1.6 kg/m3
349.39 K, 10069 kPa	236.57 ± 0.65 kg/m3
349.39 K, 10075 kPa	236.62 ± 0.65 kg/m3
349.39 K, 12580 kPa	346.19 ± 1.1 kg/m3
349.39 K, 12586 kPa	346.44 ± 1.1 kg/m3
349.39 K, 15085 kPa	467.39 ± 1.3 kg/m3
349.39 K, 15089 kPa	467.53 ± 1.3 kg/m3
349.39 K, 17619 kPa	564.01 ± 1.3 kg/m3
349.39 K, 17622 kPa	564.12 ± 1.3 kg/m3
349.39 K, 20144 kPa	630.6 ± 1.1 kg/m3
349.39 K, 20146 kPa	630.67 ± 1.1 kg/m3
349.39 K, 22669 kPa	678.62 ± 1.1 kg/m3
349.39 K, 22671 kPa	678.72 ± 1.1 kg/m3
349.39 K, 25189 kPa	715.52 ± 0.99 kg/m3
349.39 K, 25190 kPa	715.6 ± 0.99 kg/m3
349.39 K, 27706 kPa	745.39 ± 0.95 kg/m3
349.39 K, 27707 kPa	745.51 ± 0.95 kg/m3
349.39 K, 30211 kPa	770.4 ± 0.92 kg/m3
349.39 K, 30216 kPa	770.37 ± 0.92 kg/m3
349.39 K, 32707 kPa	791.84 ± 0.9 kg/m3
349.39 K, 32708 kPa	791.77 ± 0.9 kg/m3
349.39 K, 35200 kPa	810.62 ± 0.91 kg/m3
349.39 K, 35202 kPa	810.71 ± 0.91 kg/m3
375.06 K, 2549.7 kPa	38.37 ± 0.07 kg/m3
375.06 K, 2555.7 kPa	38.44 ± 0.07 kg/m3
375.06 K, 5060.6 kPa	81.6 ± 0.13 kg/m3
375.06 K, 5068.6 kPa	81.91 ± 0.13 kg/m3
375.06 K, 7564.3 kPa	131.73 ± 0.23 kg/m3
375.06 K, 7579.7 kPa	132.31 ± 0.23 kg/m3
375.06 K, 10049 kPa	189.67 ± 0.39 kg/m3
375.06 K, 10080 kPa	190.27 ± 0.39 kg/m3
375.06 K, 12595 kPa	258.2 ± 0.62 kg/m3
375.06 K, 12612 kPa	259 ± 0.62 kg/m3
375.06 K, 15080 kPa	333.08 ± 0.88 kg/m3
375.06 K, 15093 kPa	333.81 ± 0.88 kg/m3
375.06 K, 17617 kPa	411.4 ± 1.1 kg/m3
375.06 K, 17623 kPa	411.26 ± 1.1 kg/m3
375.06 K, 20142 kPa	482.1 ± 1.3 kg/m3
375.06 K, 20148 kPa	481.92 ± 1.3 kg/m3
375.06 K, 22667 kPa	541.64 ± 1.3 kg/m3
375.06 K, 22672 kPa	541.46 ± 1.3 kg/m3
375.06 K, 25185 kPa	590.31 ± 1.3 kg/m3
375.06 K, 25191 kPa	590.18 ± 1.3 kg/m3
375.06 K, 27702 kPa	630.33 ± 1.2 kg/m3
375.06 K, 27708 kPa	630.2 ± 1.2 kg/m3
375.06 K, 30214 kPa	663.73 ± 1.2 kg/m3
375.06 K, 30222 kPa	663.67 ± 1.2 kg/m3
375.06 K, 32714 kPa	692.09 ± 1.2 kg/m3
375.06 K, 32726 kPa	692.34 ± 1.2 kg/m3
375.06 K, 35206 kPa	716.75 ± 1.2 kg/m3
375.06 K, 35223 kPa	717.02 ± 1.2 kg/m3
399.99 K, 2560.5 kPa	35.13 ± 0.07 kg/m3
399.99 K, 2564.5 kPa	35.68 ± 0.07 kg/m3
399.99 K, 5074.4 kPa	74.46 ± 0.12 kg/m3
399.99 K, 5079.5 kPa	74.06 ± 0.12 kg/m3
399.99 K, 7580.3 kPa	116.91 ± 0.2 kg/m3
399.99 K, 7584.9 kPa	117.53 ± 0.2 kg/m3
399.99 K, 10090 kPa	164.56 ± 0.32 kg/m3
399.99 K, 10112 kPa	164.41 ± 0.32 kg/m3
399.99 K, 12594 kPa	215.96 ± 0.47 kg/m3
399.99 K, 12608 kPa	216.99 ± 0.48 kg/m3
399.99 K, 15081 kPa	271.09 ± 0.66 kg/m3
399.99 K, 15090 kPa	272.1 ± 0.66 kg/m3
399.99 K, 17615 kPa	329.58 ± 0.86 kg/m3
399.99 K, 17617 kPa	330.16 ± 0.86 kg/m3
399.99 K, 20141 kPa	387.34 ± 1.1 kg/m3 and 386.76 ± 1.1 kg/m3
399.99 K, 22663 kPa	440.42 ± 1.2 kg/m3
399.99 K, 22665 kPa	441.02 ± 1.2 kg/m3
399.99 K, 25183 kPa	488.79 ± 1.4 kg/m3
399.99 K, 25184 kPa	489.39 ± 1.4 kg/m3
399.99 K, 27700 kPa	532.13 ± 1.4 kg/m3
399.99 K, 27701 kPa	531.53 ± 1.4 kg/m3
399.99 K, 30211 kPa	569.48 ± 1.4 kg/m3
399.99 K, 30212 kPa	568.87 ± 1.4 kg/m3
399.99 K, 32703 kPa	601.95 ± 1.4 kg/m3
399.99 K, 32723 kPa	601.61 ± 1.4 kg/m3
399.99 K, 35199 kPa	630.66 ± 1.4 kg/m3
399.99 K, 35210 kPa	630.23 ± 1.4 kg/m3
